Earlier results as cited in patent US20230330238A1, “CHIMERIC CONJUGATES FOR DEGRADATION OF VIRAL AND HOST PROTEINS AND METHODS OF USE” (Dana-Farber Cancer Institute, Inc., priority 2020, published 2023).

Conditions: FIG. 8A, identical to FIG. 1C in Bernal F., et al. 2007; cited from earlier work

Substance: LSQETF(R8)DLWKLL(S5)EN [SAH-p53-4]
- α-helical stabilization (helicity by circular dichroism): more stable than SAH-p53-1-3
